Several values for one entry are separate records, joined by “and”; a condition that tells them apart may be missing. Equal values may be shown once. Read-outs that look alike come from different tables or passages of the source.
Key:
[1] = heating 2 K min^-1, helium
Description: TG was performed with a Sensys Evo twin type instrument manufactured by Setaram Instrumentation, France. Grinded samples of about 4 to 7 mg L-Hpa were weighed into open 100 μL aluminium crucibles and analysed with a linear temperature program under a helium (5.0) atmosphere. For the measurement, the following heating program was employed: starting at 298 K heating to 673 K with 2 K min^−1 and subsequent cooling to 298 K with 5 K min^−1. […] Temperature calibration of the instrument is performed regularly using the melting temperatures of highly pure indium, tin, zinc and lead at different heating rates.

[2] = Aqueous solubility of L-Hpa as a function of temperature and pH (isothermal equilibration, HPLC); format: physicochemical; conditions: for Solubility in water: pure water (at pI)
Description: HPLC analysis was performed via a Dionex UltiMate3000 system manufactured by Thermo Scientific, Waltham. Two different HPLC methods were employed to quantify the L-Hpa concentration. The first method relies on a 150 mm long Crownpak (CR+) column (Daicel Corporation, Osaka) with a diameter of 4 mm and a particle size of 5 μm. Measurement took place at 298 K with an eluent flow rate of 0.8 mL min^−1 and an injection volume of 1 μL. Detection was achieved by light absorbance at 200 nm. Aqueous solution of perchloric acid with a pH of 2 was used as eluent. This method was developed in our lab but a similar one was employed in the literature.[14] The second method is based on another work,[31] where a Chirobiotic T column (Astec) with a length of 250 mm, a diameter of 4.6 mm and a particle size of 5 μm was utilized. 0.5 mL per L acetic acid was added to 0.01 mol per L ammonium acetate solution, which was then mixed with methanol in the volumetric ratio of 30/70 to produce the eluent. Measurements were done with an eluent flow rate of 0.5 mL min^−1 by adding 10 μL of sample and detection of light absorbance at 210 nm. Calibration was obtained by dissolving known amounts of L-Hpa in eluent and correlating the measured light absorbance to the concentration by linear regression.
pH measurements were performed with an MP225 pH meter with an InLab Micro Pro probe manufactured by Mettler Toledo, USA. The system is calibrated in regular intervals and each day the accuracy was checked by measuring pH standards at room temperature. At 298 K the pH values were stable and used for the evaluation, while for 328 K either the stable value or the value after 60 s was accepted to reduce the influence of cooling (and potential nucleation).
Equilibrium experiments at isothermal conditions were performed in tempered double jacketed glass reactors at different temperatures. First, L-Hpa, was mixed with water and dissolved completely by heating the suspension. The samples of about 10 mL were then brought to the target temperature at which they were allowed to equilibrate for at least 48 h while being stirred continuously. […] For selected samples at both saturation temperatures (298 K and 328 K), a solid–liquid separation was conducted by vacuum filtration and the obtained solids were analysed by HPLC and PXRD.
Most experiments for determination of pH-dependent solubilities were performed in the Crystalline multi reactor system, manufactured by Technobis Crystallization Systems, The Netherlands. […] Shortly before complete dissolution was detected visually, the buffer addition was stopped. […] On the next day, stirring was stopped, liquid samples were withdrawn and the pH was recorded. […]

[3] = parameters: method as in PMID 17874082; conditions: cited from earlier work

Row | Compound | TG mass loss ([1]; at about 520 K) | TG mass loss ([1]; up to about 560 K) | Solubility in water ([2]; 298 K) | Solubility in water ([2]; 328 K) | Highest solubility observed ([2]; pH 1.07, 328 K, perchloric acid buffer) | Solubility increase at sufficiently low or high pH ([2]; pH 1.5 or 10.5) | pKa(1) (COOH), experimental [3] | pKa(2) (NH3), experimental [3]
1 | N[C@@H](CCc1ccccc1)C(=O)O [L-Hpa, L-homophenylalanine] | ca. 10 wt% | 95 wt% | 0.0075 mol% | 0.0153 mol% and 0.015 mol% | 0.278 mol% | increase almost twentyfold | – | –
2 | N[C@@H](Cc1c[nH]cn1)C(=O)O [histidine] | – | – | – | – | – | – | 1.64 ± 0.45 | 9.14 ± 0.08
3 | N[C@@H](Cc1ccccc1)C(=O)O [Phenylalanine] | – | – | – | – | – | – | – | 9.17 ± 0.06
